# Data: patent publication US11584726B2 (Beijing Foreland Pharma Co., Ltd., priority 2017, dated 2023)
# Tests used:
# [1] = tested on: CD4 on peripheral blood cell; assay: Effects on the expression of CD4 on peripheral blood cell in mice (flow cytometry); type: in vivo, mice (C57 BL/6); conditions: intragastric, once a day for four days, mouse peripheral blood
# Description: (§1) FITC Rat Anti-Mouse CD8a: BD, Cat. #553030.
# (§2) PE Rat Anti-Mouse CD4: BD, Cat. #557308.
# (§3) APC Rat Anti-Mouse CD19: BD, Cat. #561738.
# (§4) The compounds used in the test were prepared by the chemical department of Beijing Forelandpharma Co. Ltd.
# (§5) Routs of administration: intragastric administration, once a day, and continuous administration for four days.
# (§6) After the administration, supraorbital venous blood was collected from the mouse, added to an EP tube (1.5 ml) containing an anticoagulant, and kept on the ice. The resulting mixture was transferred to a test tube, centrifuged at 4° C. and 1200 rpm/min for 5 min, removed with the supernatant liquid, added with a lysate, processed with cell lysis on the ice for 5 min, then pre-dyed, added with diluted antibody, and incubated away from light for 30 min. After the incubation, the resulting mixture was washed, removed with the supernatant liquid, added with stationary liquid, and kept in a refrigerator at 4° C. away from light for the test of flow cytometry.
# [2] = tested on: CD8 on peripheral blood cell; assay: Effects on the expression of CD8 on peripheral blood cell in mice (flow cytometry); type: in vivo, mice (C57 BL/6); conditions: intragastric, once a day for four days, mouse peripheral blood
# Description: as §1, §2, §3, §4, §5, §6
# [3] = Stability observation on the isolated solid; type: physicochemical; conditions: white solid; stored at low temperature under the protection of nitrogen
# Description: 0.426 g (0.727 mmol) of intermediate 80 was dissolved in 16 ml of methanol, added with 0.01 ml of concentrated hydrochloric acid, purged with nitrogen to remove air, followed by the addition of 0.09 g of palladium 10% on carbon, purged with hydrogen, and reacted overnight at 95° C. The reaction was monitored by TLC (DCM:MeOH=10:1). After the reaction was completed, the resulting mixture was filtered, and the filter cake was washed with hot methanol. The filtrate was concentrated by rotary evaporation, added with 1% sodium hydrate solution to adjust pH to 9-10. […] Yield: 8.5%. LC-MS: 406 [M+1]^+, tR=1.328 min. A corresponding hydrogenchloride salt was obtained by mixing the solid with a solution of hydrogen chloride in methanol under stirring.
# [4] = tested on: CD19 on peripheral blood cell; assay: Effects on the expression of CD19 on peripheral blood cell in mice (flow cytometry); type: in vivo, mice (C57 BL/6); conditions: intragastric, once a day for four days, mouse peripheral blood
# Description: as §1, §2, §3, §4, §5, §6
smiles,measurement,setting,value
"N[C@@]1(CO)CCc2ccc(-c3nnc(-c4ccc(O)c(C(F)(F)F)c4)o3)cc2C1 [Example 10, (S)-4-(5-(7-amino-7-(hydroxymethyl)-5,6,7,8-tetrahydronaphthalen-2-yl)-1,3,4-oxadiazol-2-yl)-2-(trifluoromethyl)phenol]",CD4 (%),[1]; 1 mg/kg,31.1%
same,CD4 (%),[1]; 5 mg/kg,27.7%
same,CD8 (%),[2]; 1 mg/kg,15.3%
same,CD8 (%),[2]; 5 mg/kg,14.0%
same,stability of the solid,[3],prone to oxidative degradation
same,CD19 (%),[4]; 1 mg/kg,44.3%
same,CD19 (%),[4]; 5 mg/kg,35.7%
